Patent publication US11612601B1, “Targeting epidermal growth factor to treat vascular calcification” (THE FLORIDA INTERNATIONAL UNIVERSITY BOARD OF TRUSTEES, priority 2022, dated 2023)

What was measured:
[1] = system: Primary human coronary artery vascular smooth muscle cells; test: VSMC intracellular and cytosolic CAV1, EGFR, TNAP (immunoblot, activity assay, confocal); assay type: cell-based; details: OS + 2.5 μM, 14 days
Method: To assess the activity of intracellular tissue non-specific alkaline phosphatase (TNAP), a colorimetric assay kit (BioVision, K412) was used. VSMCs (n=3) after 14 days and osteoblasts (n=3) after 7 days, were lysed in 120 μL assay buffer. 80 μL of each sample were mixed with 50 μL of 5 mM pNPP solution and incubated for 60 min at 25° C. The colorimetric change resulting from the reaction was detected using a plate reader to measure absorbance at 405 nm. The results were normalized to the total protein for associated samples measured by a BCA protein assay (BioVision, K813).
VSMCs were treated with control, OS, and OS supplemented with tyrphostin AG1478 (2.5 μM) for 14 days. At the experiment endpoint, using a subcellular protein fraction kit for cultured cells (Thermofisher, 78840), cytosolic fraction was isolated according to the manufacturer's protocol. Briefly, VSMCs were harvested using 0.25% trypsin solution and resuspended in cytoplasmic extraction buffer. After 10 min incubation at 4° C., the samples were centrifuged at 1000×g for 5 min and the supernatants were collected as cytosolic fractions. The protein concentration for aortic tissue and VSMC fractions were quantified using a BCA assay and samples were prepared for protein immunoblotting.
After adding Laemmli SDS-sample buffer (1:4 v/v, Boston BioProducts, BP-110R) to each lysate, the samples were denatured at 100° C. for 10 min, loaded into 7.5-12% 1-mm SDS-PAGE gel (15 to 20 μg protein per lane), and run at 170 V. The proteins were then transferred to Trans-Blot turbo nitrocellulose membranes (BIO-RAD, 1704158) at 25 V for 7 min.
To quantify the total protein, the membranes were stained using 2% w/v Ponceau stain (Alfa Aesar, AAJ6074409) for 20 min, followed by one wash with 5% acetic acid and milliQ water for 5 min. After imaging, the intensity of each lane was measured in ImageJ for total protein normalization. Membranes were blocked with 5% w/v bovine serum albumin (HyClone, SH30574.01) in TBS-Tween (1×) for 1 hour. The membranes were incubated with primary antibodies of interest, including CAV1 (1:200, Abcam, ab2910), TNAP (1:200, Invitrogen, 702454), EGFR (1:00, EMD Millipore, 06-874), CD63 (1:200, Abeam, ab231975), GAPDH (1:100, Abcam, ab181602), and Annexin V (1:200, proteintech, 11060-1-AP) overnight at 4° C. After three washes with TBS-Tween (1×), the membranes were incubated with secondary antibody (1:1000, Li-Cor) for 1 hour, followed by three washes with TBS-Tween (1×). The protein bands were visualized with Odyssey CLx scanner (Li-Cor), and quantified using Image Studio Lite software (Li-Cor).
VSMCs were fixed after 14 days of culture using formalin (10%) for 15 min and washed with PBS. A solution of PBS and Triton X (0.1% v/v) permeabilized the plasma membrane for 10 min at room temperature. To avoid non-specific antibody binding, the cells were incubated with a blocking buffer solution, consisting of BSA (1% w/v) and glycine (22.5 mg/mL) in PBS for 30 min at room temperature. Next, the cells were incubated for 2 hours with primary antibody against CAV1 (1:200), and washed three times with PBS. Cells were then incubated with a secondary antibody, Alexa Fluor 594 (1:500, Abeam, ab150080) for 1 hour at room temperature, following by three washes with PBS. The nuclei were stained using DAPI (0.2 mg/mL, Cayman Chemical, 14285). […]

Osteoblasts (hFOB 1.19) = test: In vitro calcification of osteoblasts, Alizarin Red S staining; assay type: cell-based, human; details: OS + 2.5 μM vs OS, 21 days; p=0.86
Method: Osteoblasts (from human fetus, hFOB 1.19, ATCC, CRL-11372) were cultured and grown in DMEM containing 10% v/v bovine calf serum and 1% v/v penicillin-streptomycin. Osteoblasts (passage 4-6) were harvested using 0.25% trypsin-EDTA solution (Caisson Labs, TRL01), seeded with a density of 5,200 cell.cm^−2, and incubated for 24 hours at 37° C. and 5% CO2 with controlled humidity. The cells were treated in three groups of control, OS, and OS supplemented with tyrphostin AG1478 (2.5 μM) for 21 days and media changed every three days. […] Similar to the VSMC experiments, EV-free media were added to the cultures on days 6, 13, and 20, and collected 24 hours later on days 7, 14, and 21. Collected media were centrifuged at 1,000×g for 5 min to remove cell debris. EVs were isolated using the ultracentrifugation at 100,000×g for 1 hour.
At the end of experiments (28 and 21 days of treatment on VSMCs and osteoblasts, respectively), media were removed, and the cells were fixed using Formalin (10%, Fisher Chemical, SF100). To visualize in vitro calcification, Alizarin Red S stain (ARS, Ricca, 500-32) was added to the wells and incubated for 30 min at room temperature. […]
To quantify the in vitro calcification, ARS stain was extracted using acetic acid (1.67 M, Fisher Chemical, A38S) on a shaker. […] Sample absorbance of 405 nm was measured using a multi-mode reader (BioTek, Synergy HTX).

[2] = system: Primary human coronary artery vascular smooth muscle cells; test: VSMC extracellular matrix collagen (Sircol soluble collagen assay); assay type: cell-based; details: VSMCs, OS media, 2.5 μM, 28 days; p=0.10
Method: After 28 days of treatment, soluble collagen was extracted from the cultures using acetic acid (0.5 M) through overnight incubation at 4° C. A colorimetric assay, Sircol soluble collagen assay (Biocolor, S1000), measured the total soluble extracellular matrix (ECM) collagen in each group. Samples were prepared and assessed according to the manufacturer's protocol. Results were then normalized to the total protein measured using BCA assay.

CKD mice = test: Kidney renal fibrosis marker qRT-PCR and H&E histology in CKD mice; assay type: in vivo, mouse
Method: To assess histological changes in kidneys due to renal injury, Hematoxylin and Eosin (H&E) staining was performed. The kidneys resected from the mice were fixed using formalin (10%) for three hours. Tissues were embedded using Tissue-Plus OCT (Fisher Scientific, 23-730-571). The samples were cryosectioned with a thickness of 12 μm and stained using rapid chrome H&E staining kit (Thermo Scientific, 9990001).
To isolate RNA from the resected kidneys, the tissues were homogenized using a grinder (Sigma, Z529672) and lysed in 1 mL TRIzol solution. After 10 min incubation at room temperature, the samples were centrifuged at 12,000×g for 10 min at 4° C. The supernatants were collected and 200 μL of chloroform (Sigma Aldrich, C2432) were added to each sample. The samples were vortexed, incubated at room temperature for 10 min, and centrifuged for 15 min at 12,000×g, 4° C. The aqueous phase was collected from each sample and 500 μL of isopropanol was added; the samples were vortexed, incubated for 15 min at room temperature following by 15 min on ice, and centrifuged at 21,000×g for 15 min. The supernatants were discarded, and pellets were washed twice with 500 μL cold ethanol (75% v/v) and centrifuged at 21,000×g for 5 min. The isolated RNA templates were heated at 65° for 15 min, and the concentrations were measured using a spectrophotometer (NanoDrop Lite, Thermo scientific). Power SYBR Green RNA-to-CT 1-Step Kit with 100 ng isolated template RNA per reaction was used.
The following mouse primer sequences were purchased from Eurofins Scientific; Gapdh Forward: AACGACCCCTTCATTGAC (SEQ ID NO: 9) and Reverse: TCCACGACATACTCAGCAC (SEQ ID NO: 10); Colla1 Forward: […] (SEQ ID NO: 11) and Reverse: […] (SEQ ID NO: 12); Tgfb1 Forward: […] (SEQ ID NO: 13) and Reverse: CAGCAGCCGGTTACCAAG (SEQ ID NO: 14).

## COc1cc2ncnc(Nc3cccc(Cl)c3)c2cc1OC [AG1478, tyrphostin AG1478]
[1]; compared to control
  intracellular TNAP activity in VSMCs: elevated
[1]; compared to control (p=0.003) and OS (p=0.005)
  cytosolic TNAP in VSMCs: elevated
[1]; compared to control (p=0.02) and OS (p=0.04)
  cytosolic CAV1 in VSMCs: elevated
[1]; compared to control group
  total level of intracellular CAV1 in VSMCs: significantly increased
[1]; p=0.84
  intracellular EGFR protein in VSMCs: prevented the OS-induced increase
Osteoblasts (hFOB 1.19)
  quantification of the in vitro calcification of osteoblasts (Alizarin red): no significant difference
[2]
  ECM collagen accumulation: did not affect
CKD mice; CKD mice
  expression of common markers of renal injury: does not reduce
CKD mice; kidney, CKD mice treated vs CKD, p=0.6
  Gene expression of renal fibrosis marker Colla1: no significant differences
CKD mice; kidney, CKD mice treated vs CKD, p=0.7
  Gene expression of renal fibrosis marker Tgfb1: no significant differences
